Reference: EP2027081B1, “THERAPEUTIC PROSTAGLANDIN COMPOUNDS FOR THE TREATMENT OF GLAUCOMA” (ALLERGAN, INC., priority 2006, dated 2007)

Each compound was assayed against T1, human EP2 receptors (Homo sapiens, UniProt P43116) (assay: Competition binding, [3H]PGE2, HEK 293 cells stably expressing human EP2 receptors). Settings: Table 3; read-out: BINDING (Ki, nM) HEP2.
T1 construct: expressed in transfected cells; host or cells: HEK 293
Description: Competition binding experiments were performed in a medium containing Hank's balanced salt solution, Hepes 20 mM, pH 7.3, membranes (∼60 µg protein) or 2x10^5 cells from HEK 293 cells stably expressing human EP2 receptors, [^3H]PGE2 (10 nM) and various concentrations of test compounds in a total volume of 300 µl. Reaction mixtures were incubated at 23 °C for 60 min, and were filtered over Whatman GF/B filters under vacuum. Filters were washed three times with 5 ml ice-cold buffer containing 50 mM Tris/HCl (pH 7.3). Non-specific binding was estimated in the presence of excess unlabeled PGE2 (10 µM). Binding data fitted to the binding model for a single class of binding sites, using nonlinear regression analysis.
(§1) HEK-293 cells stably expressing the human or feline FP receptor, or EP1, EP2, or EP4 receptors were washed with TME buffer, scraped from the bottom of the flasks, and homogenized for 30 sec using a Brinkman PT 10/35 polytron. TME buffer was added to achieve a final 40 ml volume in the centrifuge tubes (the composition of TME is 100 mM TRIS base, 20 mM MgCl2, […]; 10N HCl is added to achieve a pH of 7.4).
(§2) The cell homogenate was centrifuged at 19000 r.p.m. for 20 min at 4° C using a Beckman Ti-60 rotor. The resultant pellet was resuspended in TME buffer to give a final 1 mg/ml protein concentration, as determined by Biorad assay. Radioligand binding competition assays vs. [^3H-]17 -phenyl PGF2α (5 nM) were performed in a 100µl volume for 60 min. Binding reactions were started by adding plasma membrane fraction. The reaction was terminated by the addition of 4 ml ice-cold TRIS-HCl buffer and rapid filtration through glass fiber GF/B filters using a Brandel cell harvester. The filters were washed 3 times with ice-cold buffer and oven dried for one hour.
(§3) [^3H-] PGE2 (specific activity 180 Ci mmol) was used as the radioligand for EP receptors. [^3H] 17-phenyl PGF2α was employed for FP receptor binding studies. Binding studies employing EP1, EP2, EP4 and FP receptors were performed in duplicate in at least three separate experiments. A 200µl assay volume was used. Incubations were for 60 min at 25°C and were terminated by the addition of 4 ml of ice-cold 50 mM TRIS-HCl, followed by rapid filtration through Whatman GF/B filters and three additional 4 ml washes in a cell harvester (Brandel). Competition studies were performed using a final concentration of 5 nM [^3H]-PGE2, or 5 nM [^3H] 17-phenyl PGF2α and non-specific binding determined with 10^-5M of unlabeled PGE2, or 17-phenyl PGF2α, according to receptor subtype studied.

T1 sequence (P43116 whole entry): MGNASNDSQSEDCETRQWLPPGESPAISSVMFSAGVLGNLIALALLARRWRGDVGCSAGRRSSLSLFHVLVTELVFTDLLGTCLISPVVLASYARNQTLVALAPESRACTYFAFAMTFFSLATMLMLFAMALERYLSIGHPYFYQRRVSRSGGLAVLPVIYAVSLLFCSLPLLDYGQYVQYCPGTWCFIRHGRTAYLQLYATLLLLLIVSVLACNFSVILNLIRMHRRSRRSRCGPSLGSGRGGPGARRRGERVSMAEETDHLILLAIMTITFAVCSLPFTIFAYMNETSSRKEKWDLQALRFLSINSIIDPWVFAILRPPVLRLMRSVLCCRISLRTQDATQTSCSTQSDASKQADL

Row | SMILES | Ki [nM]
1 | CCCCCC(O)c1ccc([C@H]2CCC(=O)[C@@H]2CCCCCCC(=O)O)cc1 (stereo partly shown) | 871

The compounds below were run against T2, HEP3 (Homo sapiens, UniProt P43115) (assay: Radioligand binding, EP3 receptor). Settings: Table 3; NA means not active.
T2 sequence (P43115 1-390): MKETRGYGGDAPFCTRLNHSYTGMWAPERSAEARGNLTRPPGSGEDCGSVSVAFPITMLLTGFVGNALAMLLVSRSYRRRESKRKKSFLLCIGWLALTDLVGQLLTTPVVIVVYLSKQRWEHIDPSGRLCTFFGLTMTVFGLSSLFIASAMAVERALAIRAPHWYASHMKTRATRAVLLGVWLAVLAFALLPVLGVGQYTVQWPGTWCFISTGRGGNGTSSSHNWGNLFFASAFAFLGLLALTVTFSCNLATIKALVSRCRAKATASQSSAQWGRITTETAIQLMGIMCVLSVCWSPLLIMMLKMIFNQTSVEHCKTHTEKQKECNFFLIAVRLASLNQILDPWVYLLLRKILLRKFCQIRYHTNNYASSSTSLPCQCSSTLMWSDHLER

Row | SMILES | Ki [nM]
2 | CCCCCC(O)c1ccc([C@H]2CCC(=O)[C@@H]2C/C=C\CCCC(=O)O)cc1 (stereo partly shown) [drawing 116] | 15000
3 | CCCCCC(O)c1ccc([C@H]2CCC(=O)[C@@H]2CCCCCCC(=O)O)cc1 (stereo partly shown) | 5200

These compounds were tested against T3, EP4 receptors (Homo sapiens, UniProt P35408) (assay: Radioligand binding, EP4 receptor). Settings: Table 3; read-out: BINDING (Ki, nM) HEP4.
T3 construct: expressed in transfected cells; host or cells: HEK-293
Description: as §1, §2, §3

T3 sequence (P35408 whole entry): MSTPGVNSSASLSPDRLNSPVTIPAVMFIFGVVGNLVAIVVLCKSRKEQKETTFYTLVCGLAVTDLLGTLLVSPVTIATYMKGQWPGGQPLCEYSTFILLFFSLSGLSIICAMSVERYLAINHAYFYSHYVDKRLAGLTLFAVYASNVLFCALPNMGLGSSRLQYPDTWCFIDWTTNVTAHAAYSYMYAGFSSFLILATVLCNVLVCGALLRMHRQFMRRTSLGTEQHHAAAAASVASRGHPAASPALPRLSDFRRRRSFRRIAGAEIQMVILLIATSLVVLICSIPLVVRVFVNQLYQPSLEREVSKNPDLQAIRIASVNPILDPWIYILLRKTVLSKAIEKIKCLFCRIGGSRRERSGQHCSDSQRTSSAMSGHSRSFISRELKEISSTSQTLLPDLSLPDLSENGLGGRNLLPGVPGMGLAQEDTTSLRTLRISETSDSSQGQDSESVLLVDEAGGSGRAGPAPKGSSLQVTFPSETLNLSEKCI

Row | SMILES | Ki [nM]
4 | CCCCCC(O)c1ccc([C@H]2CCC(=O)[C@@H]2C/C=C\CCCC(=O)O)cc1 (stereo partly shown) [drawing 116] | 15000
5 | CCCCCC(O)c1ccc([C@H]2CCC(=O)[C@@H]2C/C=C\CCCC(=O)OC)cc1 (stereo partly shown) [drawing 115] | 15000
6 | CCCCCC(O)c1ccc([C@H]2CCC(=O)[C@@H]2CCCCCCC(=O)O)cc1 (stereo partly shown) | 15000

The compounds below were run against T4, hEP2/Gqs5 (Homo sapiens, UniProt P43116) (assay: FLIPR calcium signal study, HEK-293(EBNA) cells). Settings: Table 1; Ca2+ signal; NA means not active; read-out: FUNCTIONAL (Ca2+, EC50, nM) HEP 2.
T4 construct: expressed in transfected cells; host or cells: HEK-293(EBNA)
Assay type: cell-based
Description: (§4) Cells were seeded at a density of 5x10^4 cells per well in Biocoat® Poly-D-lysine-coated black-wall, clear-bottom 96-well plates (Becton-Dickinson) and allowed to attach overnight in an incubator at 37 °C. Cells were then washed two times with HBSS-HEPES buffer (Hanks Balanced Salt Solution without bicarbonate and phenol red, 20 mM HEPES, pH 7.4) using a Denley Cellwash plate washer (Labsystems). After 45 minutes of dye-loading in the dark, using the calcium-sensitive dye Fluo-4 AM at a final concentration of 2 µM, plates were washed four times with HBSS-HEPES buffer to remove excess dye leaving 100 µl in each well. Plates were re-equilibrated to 37 °C for a few minutes.
Cells were excited with an Argon laser at 488 nm, and emission was measured through a 510-570 nm bandwidth emission filter (FLIPR™, Molecular Devices, Sunnyvale, CA). […] The peak increase in fluorescence intensity was recorded for each well. […] The peak fluorescence change in each drug-containing well was then expressed relative to the controls.
(§5) Compounds were tested in a high-throughput (HTS) or concentration-response (CoRe) format. In the HTS format, forty-four compounds per plate were examined in duplicates at a concentration of 10^-5 M. To generate concentration-response curves, four compounds per plate were tested in duplicates in a concentration range between 10^-5 and 10^-11 M. The duplicate values were averaged.

T4 sequence (P43116 whole entry): as the sequence (P43116 whole entry) above

Row | SMILES | EC50 [nM]
7 | O=C(O)CCCCCC[C@H]1C(=O)CC[C@@H]1c1ccc(C2(O)CCC2)cc1 [Entry 17] | > 10000
8 | CC(C)(C)c1ccc([C@H]2CCC(=O)[C@@H]2C/C=C\CCCC(=O)O)cc1 [Entry 8] | 1050
9 | CCCC1(C(O)c2ccc([C@H]3CCC(=O)[C@@H]3C/C=C\CCCC(=O)O)cc2)CCC1 (stereo partly shown) [Entry 9] | > 10000
10 | COC(=O)CCC/C=C\C[C@H]1C(=O)CC[C@@H]1c1ccc(C(O)C2CCCCC2)cc1 (stereo partly shown) [Entry 10] | > 10000
11 | O=C(O)CCCCCC[C@H]1[C@H](Cl)CC[C@@H]1c1ccc(C(O)C2CCCCC2)cc1 (stereo partly shown) [Entry 21] | > 10000
12 | O=C(O)CCCCCC[C@H]1C(=O)CC[C@@H]1c1ccc(C(O)C2CCCCC2)cc1 (stereo partly shown) [Entry 13] | 2050
13 | CCCC1(C(O)c2cccc([C@H]3CCC(=O)[C@@H]3C/C=C\CCCC(=O)O)c2)CCC1 (stereo partly shown) [Entry 2] | 2660
14 | O=C(O)CCC/C=C\C[C@H]1[C@H](Cl)CC[C@@H]1c1ccc(C(O)C2CCCCC2)cc1 (stereo partly shown) [Entry 19] | 2100
15 | CCCC1(C(O)c2cccc([C@H]3CCC(=O)[C@@H]3CCCCCCC(=O)O)c2)CCC1 (stereo partly shown) [Entry 4] | 3410
16 | COC(=O)CCCCCC[C@H]1C(=O)CC[C@@H]1c1ccc(C(O)C2CCCCC2)cc1 (stereo partly shown) [Entry 12] | > 10000

Same assay, conditions: Table 3; read-out: FUNCTIONAL (Ca2+, EC50, nM) HEP2

Row | SMILES | EC50 [nM]
17 | CCCCCC(O)c1ccc([C@H]2CCC(=O)[C@@H]2CCCCCCC(=O)O)cc1 (stereo partly shown) | 284

What follows are compounds tested against T5, hEP3A/Gqi5 (Homo sapiens, UniProt P43115) (assay: FLIPR calcium signal study, HEK-293(EBNA) cells). Settings: Table 1; NA means not active; read-out: FUNCTIONAL (Ca2+, EC50, nM) HEP 3A.
T5 construct: expressed in transfected cells; host or cells: HEK-293(EBNA)
T5 sequence (P43115 1-390): T2 sequence (P43115 1-390)
Assay type: cell-based
Description: (§6) HEK-293(EBNA) cells, stably expressing one type or subtype of recombinant human prostaglandin receptors (prostaglandin receptors expressed: hDP/Gqs5; hEP1; hEP2/Gqs5; hEP3A/Gqi5; hEP4/Gqs5; hFP; hIP; hTP), were cultured in 100 mm culture dishes in high-glucose DMEM medium containing 10% fetal bovine serum, 2 mM I-glutamine, 250 µg/ml geneticin (G418) and 200 µg/ml hygromycin B as selection markers, and 100 units/ml penicillin G, 100 µg/ml streptomycin and 0.25 µg/ml amphotericin B.
as §4
(§7) Cells were excited with an Argon laser at 488 nm, and emission was measured through a 510-570 nm bandwidth emission filter (FLIPR™, Molecular Devices, Sunnyvale, CA). Drug solution was added in a 50 µl volume to each well to give the desired final concentration. The peak increase in fluorescence intensity was recorded for each well. On each plate, four wells each served as negative (HBSS-HEPES buffer) and positive controls (standard agonists: BW245C (hDP); PGE2 (hEP1; hEP2/Gqs5; hEP3A/Gqi5; hEP4/Gqs5); PGF2α (hFP); carbacyclin (hIP); U-46619 (hTP), depending on receptor). The peak fluorescence change in each drug-containing well was then expressed relative to the controls.
as §5, with “averaged. In either, HTS or CoRe format each compound was tested on at least 3 separate plates using cells from different passages to give an n ≥ 3.” for “averaged.”

Row | SMILES | EC50 [nM]
18 | CCCC1(C(O)c2cccc([C@H]3CCC(=O)[C@@H]3CCCCCCC(=O)O)c2)CCC1 (stereo partly shown) [Entry 4] | 3830

Same assay, conditions: Table 3; read-out: FUNCTIONAL (Ca2+, EC50, nM) HEP3A

Row | SMILES | EC50 [nM]
19 | CCCCCC(O)c1ccc([C@H]2CCC(=O)[C@@H]2C/C=C\CCCC(=O)O)cc1 (stereo partly shown) [drawing 116] | 552
20 | CCCCCC(O)c1ccc([C@H]2CCC(=O)[C@@H]2C/C=C\CCCC(=O)OC)cc1 (stereo partly shown) [drawing 115] | 15000
21 | CCCCCC(O)c1ccc([C@H]2CCC(=O)[C@@H]2CCCCCCC(=O)O)cc1 (stereo partly shown) | 90

What follows are compounds tested against T6, hEP4/Gqs5 (Homo sapiens, UniProt P35408) (assay: FLIPR calcium signal study, HEK-293(EBNA) cells). Settings: Table 1; NA means not active; read-out: FUNCTIONAL (Ca2+, EC50, nM) HEP 4.
T6 construct: expressed in transfected cells; host or cells: HEK-293(EBNA)
Assay type: cell-based
Description: as §6, §4, §7
as §5, with “averaged. In either, HTS or CoRe format each compound was tested on at least 3 separate plates using cells from different passages to give an n ≥ 3.” for “averaged.”

T6 sequence (P35408 whole entry): as the sequence (P35408 whole entry) above

Row | SMILES | EC50 [nM]
22 | CCCC1(C(O)c2ccc([C@H]3CCC(=O)[C@@H]3C/C=C\CCCC(=O)O)cc2)CCC1 (stereo partly shown) [Entry 9] | > 10000

Each compound was assayed against T7, hTP (Homo sapiens, UniProt P21731) (assay: FLIPR calcium signal study, HEK-293(EBNA) cells). Settings: Table 1; NA means not active; read-out: FUNCTIONAL (Ca2+, EC50, nM) HTP.
T7 construct: expressed in transfected cells; host or cells: HEK-293(EBNA)
T7 sequence (P21731 1-343): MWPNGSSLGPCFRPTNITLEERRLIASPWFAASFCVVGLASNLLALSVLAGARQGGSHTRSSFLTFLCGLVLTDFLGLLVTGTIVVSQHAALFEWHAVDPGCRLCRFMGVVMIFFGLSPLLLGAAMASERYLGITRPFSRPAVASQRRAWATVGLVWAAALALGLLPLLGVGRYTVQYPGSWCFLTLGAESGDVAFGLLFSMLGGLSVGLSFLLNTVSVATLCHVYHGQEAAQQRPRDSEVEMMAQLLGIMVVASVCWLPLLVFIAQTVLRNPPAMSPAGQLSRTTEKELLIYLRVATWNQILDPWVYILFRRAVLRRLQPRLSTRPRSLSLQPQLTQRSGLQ
Assay type: cell-based
Description: as §6, §4, §7
as §5, with “averaged. In either, HTS or CoRe format each compound was tested on at least 3 separate plates using cells from different passages to give an n ≥ 3.” for “averaged.”

Row | SMILES | EC50 [nM]
23 | O=C(O)CCCCCC[C@H]1[C@H](Cl)CC[C@@H]1c1ccc(C(O)C2CCCCC2)cc1 (stereo partly shown) [Entry 21] | > 10000
24 | CCCC1(C(O)c2cccc([C@H]3CCC(=O)[C@@H]3C/C=C\CCCC(=O)OC)c2)CCC1 (stereo partly shown) [Entry 1] | > 10000
25 | COC(=O)CCCCCC[C@H]1C(=O)CC[C@@H]1c1ccc(C(O)C2CCCCC2)cc1 (stereo partly shown) [Entry 12] | > 10000
